This is an account of results in ChEMBL document CHEMBL1150931, “10-Oximeguanacone, the first nitrogenated acetogenin derivative found to be a potent inhibitor of mitochondrial complex I” (J Nat Prod, 1998).

Test [1] can be described thus: Inhibition of NADH-oxidase activity of electron transport protein complex 1 in submitochondrial particles of bovine heart. Also noted: species or system Bos taurus.
Test [2] is described as follows: Inhibition of NADH-ubiquinone oxidoreductase activity of electron transport protein complex 1 in submitochondrial particles of bovine heart. Also noted: species or system Bos taurus.

What is called IC50 is the midpoint of a concentration-inhibition curve. As for `CCCCCCCCCC[C@H](O)[C@H]1CC[C@H]([C@H]2CC[C@H]([C@H](O)CCCC/C(CCCCCCCC3=C[C@H](C)OC3=O)=N\O)O2)O1`, the concentration for half-maximal inhibition (IC50) in test [1] was determined as 340 pM; in test [2] it was 680 pM.

Take `CCCCCCCCCC[C@H](O)[C@H]1CC[C@H]([C@H]2CC[C@H]([C@H](O)CCCCC(O)CCCCCCCC3=C[C@H](C)OC3=O)O2)O1` (some centres undefined): the IC50 in test [1] worked out at 950 pM; in test [2] it was 1900 pM.

With `CCCCCCCCCC[C@H](O)[C@H]1CC[C@H]([C@H]2CC[C@H]([C@H](O)CCCCCCCCCCCCC3=C[C@H](C)OC3=O)O2)O1` [BULLANIN], the IC50 in test [1] came to 320 pM; in test [2], 440 pM.

With `CCCCCCCCCC[C@H](O)[C@H]1CC[C@H]([C@H]2CC[C@H]([C@H](O)CCCCC(=O)CCCCCCCC3=C[C@H](C)OC3=O)O2)O1` [GUANACONE], the IC50 came to 1520 pM in test [1] and 2070 pM in test [2].

As to `CCCCC[C@H](O)CCCC[C@H](O)[C@H]1CC[C@H]([C@H]2CC[C@H]([C@H](O)CCCCCCCCCCCCC3=C[C@H](C)OC3=O)O2)O1` [MOTRILIN], the IC50 came to 410 pM in test [1] and 810 pM in test [2].

Take `CCCCCCCCCC[C@H](O)[C@@H]1CC[C@H]([C@H]2CC[C@@H]([C@H](O)CCCCCCCC[C@@H](O)CC3=C[C@H](C)OC3=O)O2)O1` [ROLLIMEMBRIN]: the results for the half-inhibitory concentration (IC50) in test [1] and in test [2] were 330 pM and 830 pM, respectively.

For the compound `CCCCCCCCCC[C@H](O)[C@H]1CC[C@H]([C@H]2CC[C@H]([C@H](O)CCCCCCCCCCC(O)CC3=C[C@H](C)OC3=O)O2)O1` (some centres undefined) [rolliniastatin-2], the IC50 in test [1] is 510 pM; in test [2], 610 pM.
